Reference: patent US4681872A (priority 1985, dated 1987)
Values after ≈ are worked out from the molar mass of the structure shown. Where two headings read alike, the source gives them in different places.

Key:
Enterococcus GYR 1164 = experiment: antimicrobial spectrum, agar dilution MIC
Enterococcus GYR 1167 = experiment: antimicrobial spectrum, agar dilution MIC
Staph. aureus 642A = experiment: antimicrobial spectrum, agar dilution MIC; type: cell-based; conditions: BHI agar, 35°-37° C., 20-24 hours
[1] = test system: Ent. aerogenes ATCC 10348; experiment: antimicrobial spectrum, agar dilution MIC
Enterococcus A-5168 = experiment: antimicrobial spectrum, agar dilution MIC
Cl. perfringens 104 = experiment: microbe, parasite or virus in culture; type: cell-based
[2] = test system: Staph. epidermidis GYR 1151; experiment: antimicrobial spectrum, agar dilution MIC; type: cell-based; conditions: 35°-37° C., 20-24 hours
Staph. aureus CMX 705 = experiment: antimicrobial spectrum, agar dilution MIC; type: cell-based; conditions: 35°-37° C., 20-24 hours
[3] = test system: Staph. epidermidis CMX 729h; experiment: antimicrobial spectrum, agar dilution MIC
Staph. epidermidis 3519 = experiment: antimicrobial spectrum, agar dilution MIC
Bact. SP SFM2975-2 = experiment: antimicrobial spectrum, agar dilution MIC
Staph. aureus = experiment: acute mouse protection test; type: in vivo, Swiss albino mice; conditions: for ED50: Staphylococcus aureus, 168 h
Bact. fragilis SFM2929-1 = experiment: antimicrobial spectrum, agar dilution MIC
Pep. magnus ATCC 29328 = experiment: antimicrobial spectrum, agar dilution MIC; type: cell-based; conditions: 35°-37° C., 20-24 hours
Strep. pneumoniae = experiment: acute mouse protection test; type: in vivo, Swiss albino mice; conditions: mice, dosed 1 and 5 hours post-infection, observed 7 days; for ED50: Streptococcus pneumoniae, 168 h
[4] = test system: Staph. epidermidis CMX 724G; experiment: antimicrobial spectrum, agar dilution MIC
Staph. aureus NCTC 10649 = experiment: antimicrobial spectrum, agar dilution MIC; type: cell-based; conditions: 35°-37° C., 20-24 hours
Bact. fragilis SFM2906A = experiment: antimicrobial spectrum, agar dilution MIC
[5] = test system: Pseudomonas aeruginosa K799/61; experiment: antimicrobial spectrum, agar dilution MIC
E. coli H560 = experiment: antimicrobial spectrum, agar dilution MIC
Staph. aureus CYR 1150 = experiment: antimicrobial spectrum, agar dilution MIC; type: cell-based; conditions: 35°-37° C., 20-24 hours
Cl. perfringens 788 = experiment: microbe, parasite or virus in culture; type: cell-based
Enterococcus CMX 729G = experiment: antimicrobial spectrum, agar dilution MIC
Peptostrep. SP TB-11 = experiment: antimicrobial spectrum, agar dilution MIC
Bact. fragilis 105 = experiment: antimicrobial spectrum, agar dilution MIC; type: cell-based; conditions: BHI agar, 35°-37° C., 20-24 hours
Enterococcus CMX 736F = experiment: antimicrobial spectrum, agar dilution MIC
Staph. aureus ATCC 25923 = experiment: antimicrobial spectrum, agar dilution MIC; type: cell-based; conditions: 35°-37° C., 20-24 hours
Strep. pyogenes EES61 = experiment: antimicrobial spectrum, agar dilution MIC; type: cell-based; conditions: BHI agar, 35°-37° C., 20-24 hours
[6] = test system: Bact. thetaiotamicron ATCC 29741; experiment: antimicrobial spectrum, agar dilution MIC
Strep. faecalis CMX 663F = experiment: antimicrobial spectrum, agar dilution MIC
Bact. fragilis 784 = conditions: BHI agar, 35°-37° C., 20-24 hours
Strep. faecium ATCC 8043 = experiment: antimicrobial spectrum, agar dilution MIC; type: cell-based; conditions: BHI agar, 35°-37° C., 20-24 hours
[7] = beagle dogs, oral, 10.0 mg/kg, buffered solution of the lactobionate salt in water; in comparison to erythromycin A
E. coli SS = experiment: antimicrobial spectrum, agar dilution MIC; conditions: BHI agar, 35°-37° C., 20-24 hours

CC[C@H]1OC(=O)[C@H](C)[C@@H](O[C@H]2C[C@@](C)(OC)[C@@H](O)[C@H](C)O2)[C@H](C)[C@@H](O[C@@H]2O[C@H](C)C[C@H](N(C)C)[C@H]2O)[C@](C)(O)C[C@@H](C)C(=O)[C@H](C)[C@@H](O)[C@]1(C)O [Erythromycin A, reference compound]
MIC (Enterococcus GYR 1164; Enterococcus, GYR1164): 2 µg/mL (≈ 2.73 µM)
MIC (Enterococcus GYR 1167; Enterococcus, GYR1167): 2 µg/mL (≈ 2.73 µM)
MIC (Staph. aureus 642A; Staphylococcus aureus, read-out: MIC): 0.12 µg/mL (≈ 0.164 µM)
MIC ([1]; Klebsiella aerogenes, ATCC10348): 100 µg/mL (≈ 136 µM)
MIC (Enterococcus A-5168; Enterococcus, A5168): 128 µg/mL (≈ 174 µM)
MIC (Cl. perfringens 104; Clostridium perfringens, 104): 1.6 µg/mL (≈ 2.18 µM)
MIC ([2]; Staphylococcus epidermidis, GYR1151, BHI agar, read-out: MIC): 0.06 µg/mL (≈ 0.0818 µM)
MIC (Staph. aureus CMX 705; Staphylococcus aureus, CMX705, BHI agar, read-out: MIC): 0.06 µg/mL (≈ 0.0818 µM)
MIC ([3]; Staphylococcus epidermidis, CMX729H): 128 µg/mL (≈ 174 µM)
MIC (Staph. epidermidis 3519; Staphylococcus epidermidis, 3519): 0.39 µg/mL (≈ 0.531 µM)
MIC (Bact. SP SFM2975-2): 1.6 µg/mL (≈ 2.18 µM)
ED50 (Staph. aureus; Staph. aureus, mice, oral, dosed 1 and 5 hours post-infection, observed 7 days, read-out: ED-50): 141 mg/kg
ED50 (Staph. aureus; sc): 21.4 mg/kg
MIC (Bact. fragilis SFM2929-1; Bacteroides fragilis, SFM29291): 3.1 µg/mL (≈ 4.22 µM)
MIC (Pep. magnus ATCC 29328; Finegoldia magna, ATCC29328, BHI agar, read-out: MIC): 0.4 µg/mL (≈ 0.545 µM)
ED50 (Strep. pneumoniae; oral): 113 mg/kg
ED50 (Strep. pneumoniae; sc, subcutaneous): 50 mg/kg
MIC ([4]; Staphylococcus epidermidis, CMX724G): 128 µg/mL (≈ 174 µM)
MIC (Staph. aureus NCTC 10649; Staphylococcus aureus, NCTC10649, BHI agar, read-out: MIC): 0.12 µg/mL (≈ 0.164 µM)
MIC (Bact. fragilis SFM2906A; Bacteroides fragilis, SFM2906A): 3.1 µg/mL (≈ 4.22 µM)
MIC ([5]; Pseudomonas aeruginosa, K799/61): 3.1 µg/mL (≈ 4.22 µM)
MIC (E. coli H560; Escherichia coli, H560): 12.5 µg/mL (≈ 17 µM)
MIC (Staph. aureus CYR 1150; Staphylococcus aureus, CYR1150, BHI agar, read-out: MIC): 0.12 µg/mL (≈ 0.164 µM)
MIC (Cl. perfringens 788; Clostridium perfringens, 788): 1.6 µg/mL (≈ 2.18 µM)
MIC (Enterococcus CMX 729G; Enterococcus, CMX729G): 0.1 µg/mL (≈ 0.136 µM)
MIC (Peptostrep. SP TB-11): 3.1 µg/mL (≈ 4.22 µM)
MIC (Bact. fragilis 105; Bacteroides fragilis, read-out: MIC): 0.4 µg/mL (≈ 0.545 µM)
MIC (Enterococcus CMX 736F; Enterococcus, CMX736F): 0.1 µg/mL (≈ 0.136 µM)
MIC (Staph. aureus ATCC 25923; Staphylococcus aureus, ATCC25923, BHI agar, read-out: MIC): 0.06 µg/mL (≈ 0.0818 µM)
MIC (Strep. pyogenes EES61; Streptococcus pyogenes, read-out: MIC): 0.01 µg/mL (≈ 0.0136 µM)
MIC [6]: 3.1 µg/mL (≈ 4.22 µM)
MIC (Strep. faecalis CMX 663F; Enterococcus faecalis, CMX663F): 16 µg/mL (≈ 21.8 µM)

CCC1OC(=O)C(C)C(OC2CC(C)(OC)CC(C)O2)C(C)C(OC2OC(C)CC(N(C)C)C2O)C(C)(O)CC(C)C(=O)C(C)C2OC(=O)OC12C (stereo not drawn) [4"-deoxyerythromycin A 11,12-carbonate]
MIC (Bact. fragilis 784): .4 µg/mL (≈ 0.538 µM)
MIC (Enterococcus GYR 1164; Enterococcus GYR 1164, BHI agar, 35°-37° C., 20-24 hours): .12 µg/mL (≈ 0.161 µM)
MIC (Enterococcus GYR 1167; Enterococcus GYR 1167, BHI agar, 35°-37° C., 20-24 hours): .5 µg/mL (≈ 0.672 µM)
MIC (Staph. aureus 642A): .06 µg/mL (≈ 0.0807 µM)
MIC ([1]; Ent. aerogenes ATCC 10348, BHI agar, 35°-37° C., 20-24 hours): 50 µg/mL (≈ 67.2 µM)
MIC (Enterococcus A-5168; Enterococcus A-5168, BHI agar, 35°-37° C., 20-24 hours): 128 µg/mL (≈ 172 µM)
MIC (Cl. perfringens 104; Cl. perfringens 104, BHI agar, 35°-37° C., 20-24 hours): .4 µg/mL (≈ 0.538 µM)
MIC ([2]; BHI agar): .06 µg/mL (≈ 0.0807 µM)
MIC (Staph. aureus CMX 705; BHI agar): .03 µg/mL (≈ 0.0403 µM)
MIC ([3]; Staph. epidermidis CMX 729h, BHI agar, 35°-37° C., 20-24 hours): 128 µg/mL (≈ 172 µM)
MIC (Staph. epidermidis 3519; Staph. epidermidis 3519, BHI agar, 35°-37° C., 20-24 hours): .1 µg/mL (≈ 0.134 µM)
MIC (Bact. SP SFM2975-2; Bact. SP SFM2975-2, BHI agar, 35°-37° C., 20-24 hours): .8 µg/mL (≈ 1.08 µM)
MIC (Strep. faecium ATCC 8043): .05 µg/mL (≈ 0.0672 µM)
ED-50 (Staph. aureus; Staph. aureus, mice, oral, dosed 1 and 5 hours post-infection, observed 7 days): 31.4 mg/kg
ED-50 (Staph. aureus; Staph. aureus, mice, subcutaneous, dosed 1 and 5 hours post-infection, observed 7 days): 36.3 mg/kg
MIC (Bact. fragilis SFM2929-1; Bact. fragilis SFM2929-1, BHI agar, 35°-37° C., 20-24 hours): 1.6 µg/mL (≈ 2.15 µM)
MIC (Pep. magnus ATCC 29328; BHI agar): .2 µg/mL (≈ 0.269 µM)
ED-50 (Strep. pneumoniae; oral): 200.0 mg/kg
ED-50 (Strep. pneumoniae; subcutaneous): 44.1 mg/kg
MIC ([4]; Staph. epidermidis CMX 724G, BHI agar, 35°-37° C., 20-24 hours): 128 µg/mL (≈ 172 µM)
MIC (Staph. aureus NCTC 10649; BHI agar): .06 µg/mL (≈ 0.0807 µM)
MIC (Bact. fragilis SFM2906A; Bact. fragilis SFM2906A, BHI agar, 35°-37° C., 20-24 hours): .8 µg/mL (≈ 1.08 µM)
MIC ([5]; Pseudomonas aeruginosa K799/61, BHI agar, 35°-37° C., 20-24 hours): 1.56 µg/mL (≈ 2.1 µM)
half life [7]: substantially longer half life
peak blood level [7]: markedly higher peak blood level
MIC (E. coli H560; E. coli H560, BHI agar, 35°-37° C., 20-24 hours): 6.2 µg/mL (≈ 8.33 µM)
MIC (Staph. aureus CYR 1150; BHI agar): .03 µg/mL (≈ 0.0403 µM)
MIC (Cl. perfringens 788; Cl. perfringens 788, BHI agar, 35°-37° C., 20-24 hours): .4 µg/mL (≈ 0.538 µM)
MIC (Enterococcus CMX 729G; Enterococcus CMX 729G, BHI agar, 35°-37° C., 20-24 hours): .12 µg/mL (≈ 0.161 µM)
MIC (E. coli SS): .2 µg/mL (≈ 0.269 µM)
MIC (Peptostrep. SP TB-11; Peptostrep. SP TB-11, BHI agar, 35°-37° C., 20-24 hours): .8 µg/mL (≈ 1.08 µM)
MIC (Bact. fragilis 105): .2 µg/mL (≈ 0.269 µM)
MIC (Enterococcus CMX 736F; Enterococcus CMX 736F, BHI agar, 35°-37° C., 20-24 hours): .12 µg/mL (≈ 0.161 µM)
MIC (Staph. aureus ATCC 25923; BHI agar): .03 µg/mL (≈ 0.0403 µM)
MIC (Strep. pyogenes EES61): .01 µg/mL (≈ 0.0134 µM)
MIC ([6]; Bact. thetaiotamicron ATCC 29741, BHI agar, 35°-37° C., 20-24 hours): 1.6 µg/mL (≈ 2.15 µM)
MIC (Strep. faecalis CMX 663F; Strep. faecalis CMX 663F, BHI agar, 35°-37° C., 20-24 hours): 2 µg/mL (≈ 2.69 µM)
